Reference: US20260034123A1 (Cedilla Therapeutics, Inc., priority 2022, published 2026)

Tests used:
[1] = target: T1, CDK2/Cyclin E1 (Homo sapiens, UniProt P24941); experiment: Caliper LabChip EZ Reader mobility shift assay; format: biochemical; details: 2.5 nM CDK2/Cyclin E1(14-475), 100 μM ATP, 30 min preincubation; read-out: Caliper Assay (CDK2/CCNE1): IC50
Experimental: Inhibition of CDK2/Cyclin E1 activity in the presence of compounds of the present disclosure was evaluated using a Caliper LabChip® EZ Reader mobility shift assay. In the assay, activated CDK2/Cyclin E1 catalyzes the phosphorylation of a fluorescently tagged peptide 5-FAM-QSPKKG-CONH2 (PerkinElmer, FL Peptide 18) which induces a difference in capillary electrophoresis mobility. The peptide substrate and product were measured, and the conversion ratio was used to determine the inhibition (as % activity and IC50 values) of CDK2/Cyclin E1. Reactions contained 50 mM HEPES pH 7.5, 10 mM MgCl2, 1 mM EDTA, 2 mM DTT, 0.01% Brij35, 0.5 mg/mL BSA, 0.1% DMSO, 2.5 nM CDK2/Cyclin E1(14-475), 100 μM ATP, and 1.5 μM fluorescent peptide substrate.
Dose titrations of inhibitors in 100% DMSO were combined with 3.25 nM CDK2/Cyclin E1(14-475) and 130 μM of ATP in reaction buffer. The mixtures were incubated for 30 minutes before the addition of fluorescent peptide substrate to initiate the kinase reaction. The final conditions were 2.5 nM CDK2/Cyclin E1(14-475), 100 μM ATP, and 1.5 μM fluorescent peptide. The reactions were stopped after 100 minutes with the addition of EDTA (6 mM final EDTA concentration). The stopped reactions were analyzed on a Caliper LabChip® EZ Reader 11. The conversion ratios were normalized to yield % activity, plotted against compound concentration, and fit to a four-parameter equation to determine the IC50 for each compound.

[2] = system: Kuramochi cells RB-WT; experiment: IncuCyte Kuramochi cell proliferation assay, RB-WT; format: cell-based; details: 72 hours, cell count
Outline: (§1)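 mApple-H2B-labelled Kuramochi cells were treated with a 10-point, half-log series (top 20 µM) and imaged at 0 and 72 h. Fluorescent nuclei were counted, and the 0–72 h fold change was normalized to DMSO wells. GI50 came from dose-response fits.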

[3] = target: T1, CDK2/Cyclin E1; experiment: ADP-Glo Luminescent Kinase Assay (CDK2/E1-37C); format: biochemical; details: 0.18 nM CDK2/Cyclin E1, 100 μM ATP, Histone H1, 37° C.; read-out: ADPGLO (CDK2/E1-37C): IC50
Outline: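 Activated CDK2/Cyclin E1 (0.18 nM final) preincubated with compound 60 min at 37 °C, then reacted with 100 μM ATP and Histone H1 ([…]) for 90 min at 37 °C in HEPES pH 7.5 buffer. ADP-Glo luminescence normalized to % activity; IC50 from four-parameter fit.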

[4] = system: Kuramochi cells RB-KO; experiment: IncuCyte Kuramochi cell proliferation assay, RB-KO; format: cell-based; details: 72 hours, cell count, batch mean
Outline: as §1

O=C(c1cncs1)N1C[C@@H](COCc2cccc(-c3ccc(C4(C(F)(F)F)CC4)cc3)n2)C2(CN(CC3CCCO3)C2)C1 (stereo partly drawn) [Compound I-7, ((8S)-2-((tetrahydrofuran-2-yl)methyl)-8-(((6-(4-(1-(trifluoromethyl)cyclopropyl)phenyl)pyridin-2-yl)methoxy)methyl)-2,6-diazaspiro[3.4]octan-6-yl)(thiazol-5-yl)methanone]
IC50 [1]: > 10 µM
IC50 [2]: > 10 µM

CC(C)(C(=O)N1CC2(CN(C(=O)c3cnn(Cc4ccc(F)cc4)c3)CC2COCc2cc(F)cc(C3CCC(F)(F)CC3)c2C(=O)O)C1)C(F)(F)F (centres unmarked) [I′-68, 2-(4,4-difluorocyclohexyl)-4-fluoro-6-(((6-(1-(4-fluorobenzyl)-1H-pyrazole-4-carbonyl)-2-(3,3,3-trifluoro-2,2-dimethylpropanoyl)-2,6-diazaspiro[3.4]octan-8-yl)methoxy)methyl)benzoic acid]
IC50 [3]: ≤ 0.5 µM
IC50 [4]: > 10 µM
IC50 [2]: 5 to 10 µM

CC1(C)C[C@@H]1C(=O)N1CC2(CN(C(=O)c3cnn(Cc4ccc(F)cc4)c3)CC2/C=C\Cc2cccc(C3CCC(F)(F)CC3)c2C(=O)O)C1 (some centres unmarked) [I′-69]
IC50 [3]: > 10 µM
IC50 [4]: > 10 µM
IC50 [2]: 5 to 10 µM

CC1(C)C[C@@H]1C(=O)N1CC2(CN(C(=O)c3cnn(Cc4ccc(F)cc4)c3)CC2COCc2cccc(C3CCC(F)(F)CC3)c2-c2nn[nH]n2)C1 (stereo partly drawn) [I′-70, (8-(((3-(4,4-difluorocyclohexyl)-2-(2H-tetrazol-5-yl)benzyl)oxy)methyl)-2-((S)-2,2-dimethylcyclopropane-1-carbonyl)-2,6-diazaspiro[3.4]octan-6-yl)(1-(4-fluorobenzyl)-1H-pyrazol-4-yl)methanone]
IC50 [3]: ≤ 0.5 µM
IC50 [4]: > 10 µM
IC50 [2]: > 10 µM

CC(C)(C(=O)N1CC2(C1)CN(c1cc(F)c(F)c3ncsc13)C[C@H]2COCc1cccc(C2CCC(F)(F)CC2)c1C(=O)O)C(F)(F)F [I′-71, (S)-2-(((6-(4,5-difluorobenzo[d]thiazol-7-yl)-2-(3,3,3-trifluoro-2,2-dimethylpropanoyl)-2,6-diazaspiro[3.4]octan-8-yl)methoxy)methyl)-6-(4,4-difluorocyclohexyl)benzoic acid]
IC50 [3]: ≤ 0.5 µM
IC50 [4]: > 10 µM
IC50 [2]: 5 to 10 µM

CC1(C)C[C@@H]1C(=O)N1CC2(C1)CN(c1cc(F)c(F)c3ncsc13)C[C@H]2COCc1cccc(C2CCC(F)(F)CC2)c1C(=O)O [I′-72, 2-((((S)-6-(4,5-difluorobenzo[d]thiazol-7-yl)-2-((S)-2,2-dimethylcyclopropane-1-carbonyl)-2,6-diazaspiro[3.4]octan-8-yl)methoxy)methyl)-6-(4,4-difluorocyclohexyl)benzoic acid]
IC50 [3]: ≤ 0.5 µM
IC50 [4]: > 10 µM
IC50 [2]: ≤ 0.5 µM

O=C(O)c1c(COCC2CN(C(=O)c3cnn(Cc4ccc(F)cc4)c3)CC23CN(C(=O)C2(C(F)(F)F)CC2)C3)cccc1-c1ccc(Cl)cc1F (centres unmarked) [I′-73]
IC50 [3]: ≤ 0.5 µM
IC50 [4]: > 10 µM
IC50 [2]: ≤ 0.5 µM

O=C(O)c1ccccc1Cn1cc(C(=O)N2CC(COCc3cccc(C4CCC(C(F)(F)F)CC4)c3OC(F)F)C3(C2)CN(C(=O)C2(C(F)(F)F)CC2)C3)cn1 (centres unmarked) [I′-74, 2-((4-(8-(((2-(difluoromethoxy)-3-(4-(trifluoromethyl)cyclohexyl)benzyl)oxy)methyl)-2-(1-(trifluoromethyl)cyclopropane-1-carbonyl)-2,6-diazaspiro[3.4]octane-6-carbonyl)-1H-pyrazol-1-yl)methyl)benzoic acid]
IC50 [3]: ≤ 0.5 µM
IC50 [4]: > 10 µM
IC50 [2]: > 10 µM

CC1(C)C[C@@H]1C(=O)N1CC2(CN(C(=O)c3cnn(Cc4ccc(F)cc4)c3)CC2COCc2cccc(C3CCC(F)(F)CC3)c2C#N)C1 (stereo partly drawn) [I′-75, 2-(4,4-difluorocyclohexyl)-6-(((2-((S)-2,2-dimethylcyclopropane-1-carbonyl)-6-(1-(4-fluorobenzyl)-1H-pyrazole-4-carbonyl)-2,6-diazaspiro[3.4]octan-8-yl)methoxy)methyl)benzonitrile]
IC50 [3]: ≤ 0.5 µM
IC50 [4]: > 10 µM
IC50 [2]: > 10 µM

CC(C)(C(=O)N1CC2(CN(C(=O)c3cnn(Cc4ccc(F)cc4)c3)CC2COCc2cccc(C3CCC(F)(F)CC3)c2C(=O)O)C1)C(F)(F)F (centres unmarked) [I′-76]
IC50 [3]: ≤ 0.5 µM
IC50 [4]: 5 to 10 µM
IC50 [2]: 0.5 to 5 µM

Cc1cc(F)ccc1-c1cccc(COCC2CN(C(=O)c3cnn(Cc4ccc(F)cc4)c3)CC23CN(C(=O)C2(C(F)(F)F)CC2)C3)c1C(=O)O (centres unmarked) [I′-77, 4′-fluoro-3-(((6-(1-(4-fluorobenzyl)-1H-pyrazole-4-carbonyl)-2-(1-(trifluoromethyl)cyclopropane-1-carbonyl)-2,6-diazaspiro[3.4]octan-8-yl)methoxy)methyl)-2′-methyl-[1,1′-biphenyl]-2-carboxylic acid]
IC50 [3]: ≤ 0.5 µM
IC50 [4]: > 10 µM
IC50 [2]: 5 to 10 µM

CC1(C)C[C@@H]1C(=O)N1CC2(CN(C(=O)c3cnn(Cc4ccc(F)cc4)c3)CC2C#CCc2cccc(C3CCC(F)(F)CC3)c2C(=O)O)C1 (some centres unmarked) [I′-78]
IC50 [3]: > 10 µM
IC50 [4]: > 10 µM
IC50 [2]: > 10 µM

CC(C)(C)OC(=O)c1c(COCC2CN(C(=O)c3cnn(Cc4ccc(F)cc4)c3)CC23CN(C(=O)[C@H]2CC2(C)C)C3)cccc1C1CCC(F)(F)CC1 (stereo partly drawn) [I′-79, tert-butyl 2-(4,4-difluorocyclohexyl)-6-(((2-((S)-2,2-dimethylcyclopropane-1-carbonyl)-6-(1-(4-fluorobenzyl)-1H-pyrazole-4-carbonyl)-2,6-diazaspiro[3.4]octan-8-yl)methoxy)methyl)benzoate]
IC50 [3]: ≤ 0.5 µM
IC50 [4]: > 10 µM
IC50 [2]: > 10 µM

CC1(C)C[C@@H]1C(=O)N1CC2(CN(C(=O)c3cnn(Cc4ccc(F)cc4)c3)CC2COCc2cccc(C3CCC(F)(F)CC3)c2C(=O)O)C1 (stereo partly drawn) [I′-80, 2-(4,4-difluorocyclohexyl)-6-(((2-((S)-2,2-dimethylcyclopropane-1-carbonyl)-6-(1-(4-fluorobenzyl)-1H-pyrazole-4-carbonyl)-2,6-diazaspiro[3.4]octan-8-yl)methoxy)methyl)benzoic acid]
IC50 [3]: ≤ 0.5 µM
IC50 [4]: > 10 µM
IC50 [2]: 0.5 to 5 µM

CC1(C)C[C@@H]1C(=O)N1CC2(CN(C(=O)c3cnn(Cc4ccc(F)cc4)c3)CC2COCc2cccc(Br)c2C(=O)O)C1 (some centres unmarked) [I′-81]
IC50 [3]: 0.5 to 5 µM
IC50 [4]: > 10 µM
IC50 [2]: > 10 µM

O=C(O)c1c(O)cc(COCC2CN(C(=O)c3cnn(Cc4ccc(C(F)(F)F)cc4)c3)CC23CN(C(=O)C2(C(F)(F)F)CC2)C3)cc1C1CCC(F)(F)CC1 (centres unmarked) [I′-82]
IC50 [3]: 5 to 10 µM
IC50 [4]: > 10 µM
IC50 [2]: > 10 µM

CC(C)(C)OC(=O)c1c(COCC2CN(C(=O)c3cnn(Cc4ccc(F)cc4C(F)(F)F)c3)CC23CN(C(=O)C2(C(F)(F)F)CC2)C3)cccc1C1CCC(C(F)(F)F)CC1 (centres unmarked) [I′-83]
IC50 [3]: 0.5 to 5 µM
IC50 [4]: > 10 µM
IC50 [2]: > 10 µM

CC1(C)C[C@@H]1C(=O)N1CC2(CN(C(=O)c3cnn(Cc4ccc(F)cc4)c3)CC2COCc2cccc(C3CCC(C(F)(F)F)CC3)c2C(N)=O)C1 (stereo partly drawn) [I′-84, 2-(((2-((S)-2,2-dimethylcyclopropane-1-carbonyl)-6-(1-(4-fluorobenzyl)-1H-pyrazole-4-carbonyl)-2,6-diazaspiro[3.4]octan-8-yl)methoxy)methyl)-6-(4-(trifluoromethyl)cyclohexyl)benzamide]
IC50 [3]: ≤ 0.5 µM
IC50 [4]: > 10 µM
IC50 [2]: > 10 µM

CC1(C)C[C@@H]1C(=O)N1CC2(CN(C(=O)c3cnn(Cc4ccc(F)cc4)c3)CC2COCc2cccc(C3CCC(C(F)(F)F)CC3)c2C(=O)O)C1 (stereo partly drawn) [I′-85, 2-(((2-((S)-2,2-dimethylcyclopropane-1-carbonyl)-6-(1-(4-fluorobenzyl)-1H-pyrazole-4-carbonyl)-2,6-diazaspiro[3.4]octan-8-yl)methoxy)methyl)-6-(4-(trifluoromethyl)cyclohexyl)benzoic acid]
IC50 [3]: ≤ 0.5 µM
IC50 [4]: 5 to 10 µM
IC50 [2]: ≤ 0.5 µM

N#Cc1c(COCC2CN(C(=O)c3cnn(Cc4ccc(C(F)(F)F)cc4)c3)CC23CN(C(=O)C2(C(F)(F)F)CC2)C3)cccc1C1CCC(C(F)(F)F)CC1 (centres unmarked) [I′-86]
IC50 [3]: 0.5 to 5 µM
IC50 [4]: > 10 µM
IC50 [2]: > 10 µM
